Measured values taken from ChEMBL document CHEMBL1149800, “Synthesis, physicochemical properties and antimicrobial evaluation of new (E)-chalcones” (Eur J Med Chem, 2008).
Converted amounts (≈) assume the structure as drawn.

How the values were obtained:
Bacillus subtilis = assay: Antibacterial activity against Bacillus subtilis ATCC 1633 after 18 hrs by hole-plate agar diffusion method; assay type: functional; settings: ATCC 1633, 18 h
Staphylococcus aureus = assay: Antibacterial activity against Staphylococcus aureus 209P FDA after 18 hrs by hole-plate agar diffusion method; assay type: functional
Nannizzia gypsea = assay: Antifungal activity against Microsporum gypseum after 3 to 7 days; assay type: functional
Enterococcus faecalis = assay: Antibacterial activity against Enterococcus faecalis after 18 hrs by hole-plate agar diffusion method; assay type: functional
Candida albicans = assay: Antifungal activity against Candida albicans PCM 1409 PZH after 3 to 7 days; assay type: functional, organism-based
Escherichia coli = assay: Antibacterial activity against Escherichia coli PZH 026 B6 after 18 hrs by hole-plate agar diffusion method; assay type: functional

| Compound | MIC (Bacillus subtilis) [µM] | MIC (Staphylococcus aureus) [µM] | MIC (Nannizzia gypsea) [µM] | MIC (Enterococcus faecalis) [µM] | MIC (Candida albicans) [µM] | MIC (Escherichia coli) [µM] |
| --- | --- | --- | --- | --- | --- | --- |
| CC1CCN(CCCCCCOc2ccc(/C=C/C(=O)c3ccccc3)cc2)CC1 | 19 (≈ 7.71 µg/mL) | 25 (≈ 10.1 µg/mL) | 123 (≈ 49.9 µg/mL) | 25 (≈ 10.1 µg/mL) |  |  |
| O=C(/C=C/c1ccc(OCCCCN2CCOCC2)cc1)c1ccccc1 |  |  | 274 (≈ 100 µg/mL) |  |  |  |
| O=C(/C=C/c1ccc(OCCCCCN2CCOCC2)cc1)c1ccccc1 |  |  | 264 (≈ 100 µg/mL) |  |  |  |
| O=C(/C=C/c1ccc(OCCCCCCN2CCOCC2)cc1)c1ccccc1 |  |  | 254 (≈ 100 µg/mL) |  |  |  |
| O=C(/C=C/c1ccc(SCCCCCN2CCOCC2)cc1)c1ccccc1 |  |  | 189 (≈ 74.8 µg/mL) |  |  |  |
| O=C(/C=C/c1ccc(SCCCCCCN2CCOCC2)cc1)c1ccccc1 |  |  | < 244 |  |  |  |
| O=C(/C=C/c1ccc(OCCCCCBr)cc1)c1ccccc1 |  |  | 268 (≈ 100 µg/mL) |  |  |  |
| O=C(/C=C/c1ccc(OCCCCN2CCCCC2)cc1)c1ccccc1 | 275 (≈ 100 µg/mL) | 275 (≈ 100 µg/mL) |  | 275 (≈ 100 µg/mL) |  |  |
| O=C(/C=C/c1ccc(SCCCCCN2CCCCC2)cc1)c1ccccc1 | 254 (≈ 100 µg/mL) | 254 (≈ 100 µg/mL) | 254 (≈ 100 µg/mL) | 254 (≈ 100 µg/mL) | 127 (≈ 50 µg/mL) | 254 (≈ 100 µg/mL) |
| O=C(/C=C/c1ccc(OCCCCCN2CCCCC2)cc1)c1ccccc1 | 265 (≈ 100 µg/mL) | 265 (≈ 100 µg/mL) |  | 265 (≈ 100 µg/mL) |  |  |
| CC1CCN(CCCCOc2ccc(/C=C/C(=O)c3ccccc3)cc2)CC1 | 265 (≈ 100 µg/mL) | 133 (≈ 50.2 µg/mL) | 265 (≈ 100 µg/mL) | 265 (≈ 100 µg/mL) |  |  |
| CC1CCN(CCCCCOc2ccc(/C=C/C(=O)c3ccccc3)cc2)CC1 | 128 (≈ 50.1 µg/mL) | 19 (≈ 7.44 µg/mL) | 256 (≈ 100 µg/mL) | 26 (≈ 10.2 µg/mL) |  |  |
| O=C(/C=C/c1ccc(OCCCCCCN2CCCCC2)cc1)c1ccccc1 | 256 (≈ 100 µg/mL) | 256 (≈ 100 µg/mL) | < 256 | 256 (≈ 100 µg/mL) |  |  |
| O=C(/C=C/c1ccc(OCCCCCCCCCCN2CCCCC2)cc1)c1ccccc1 | 209 (≈ 93.6 µg/mL) | 21 (≈ 9.4 µg/mL) |  | 209 (≈ 93.6 µg/mL) |  |  |
| O=C(/C=C/c1ccc(SCCCCBr)cc1)c1ccccc1 |  | 267 (≈ 100 µg/mL) |  |  |  |  |
| O=C(/C=C/c1ccc(SCCCCCCN2CCCCC2)cc1)c1ccccc1 | 25 (≈ 10.2 µg/mL) | 25 (≈ 10.2 µg/mL) | < 246 | 25 (≈ 10.2 µg/mL) | < 246 |  |
| O=C(/C=C/c1ccc(SCCCCCCCCCCN2CCCCC2)cc1)c1ccccc1 |  | 216 (≈ 100 µg/mL) | 216 (≈ 100 µg/mL) |  |  |  |
| O=C(/C=C/c1ccc(SCCCCCBr)cc1)c1ccccc1 |  |  | 193 (≈ 75.1 µg/mL) |  |  |  |
| O=C(/C=C/c1ccc(SCCCCN2CCCCC2)cc1)c1ccccc1 | 26 (≈ 9.87 µg/mL) | 26 (≈ 9.87 µg/mL) | 264 (≈ 100 µg/mL) | 264 (≈ 100 µg/mL) |  |  |
| CC1CCN(CCCCSc2ccc(/C=C/C(=O)c3ccccc3)cc2)CC1 | 254 (≈ 100 µg/mL) | 25 (≈ 9.84 µg/mL) | 191 (≈ 75.2 µg/mL) | 254 (≈ 100 µg/mL) |  |  |
| CC1CCN(CCCCCSc2ccc(/C=C/C(=O)c3ccccc3)cc2)CC1 | 25 (≈ 10.2 µg/mL) | 18 (≈ 7.34 µg/mL) | 184 (≈ 75 µg/mL) | 25 (≈ 10.2 µg/mL) | 184 (≈ 75 µg/mL) |  |
| CC1CCN(CCCCCCSc2ccc(/C=C/C(=O)c3ccccc3)cc2)CC1 | 18 (≈ 7.59 µg/mL) | 24 (≈ 10.1 µg/mL) | < 237 | 24 (≈ 10.1 µg/mL) | < 237 |  |
| O=C(/C=C/c1ccc(SCCCCCCN2CCNCC2)cc1)c1ccccc1 |  | 245 (≈ 100 µg/mL) |  | 245 (≈ 100 µg/mL) |  |  |
| O=C(/C=C/c1ccc(SCCCCN2CCNCC2)cc1)c1ccccc1 | 263 (≈ 100 µg/mL) | 263 (≈ 100 µg/mL) |  | 263 (≈ 100 µg/mL) |  |  |
| C[C@@H]1[C@H](O)[C@@H](C)/C=C/C=C/C=C/C=C/C=C/C=C/C=C/[C@H](O[C@@H]2O[C@H](C)[C@@H](O)[C@H](N)[C@@H]2O)C[C@@H]2O[C@](O)(C[C@@H](O)C[C@@H](O)[C@H](O)CC[C@@H](O)C[C@@H](O)CC(=O)O[C@H]1C)C[C@H](O)[C@H]2C(=O)O [AMPHOTERICIN B] |  |  | 11 (≈ 10.2 µg/mL) |  | 0.5 (≈ 0.462 µg/mL) |  |
| O=C(N[C@H](CO)[C@H](O)c1ccc([N+](=O)[O-])cc1)C(Cl)Cl [CHLORAMPHENICOL] | 15 (≈ 4.85 µg/mL) | 15 (≈ 4.85 µg/mL) |  | 15 (≈ 4.85 µg/mL) |  | 15 (≈ 4.85 µg/mL) |
